Experimental findings from the supplement of paper PMC11061612 are described below.

What all share (experiment): combination Emax (second highest fraction inhibited in the dose matrix, 72 h); higher = more inhibition; extreme values may be limits of the assay
For experiment [1], the system named is CAL-85-1 (Breast Carcinoma). The essentials:
(§1)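 Bliss excess equals the observed combination effect minus the expected value EA + EB − EA·EB, where EA and EB are the effects of each agent alone. Combination Emax is the second-highest inhibition within the matrix. Inhibition was scaled from CellTiter-Glo 2.0 luminescence, with 0 set by vehicle wells and 1 by blank wells, after 72 hours of two-drug dosing of cells plated in 1536-well plates.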

A further experiment relates to A375 (Melanoma). The method in brief: as §1
The test system of experiment [2] is JJN-3 (Plasma Cell Myeloma). The method in brief:
as §1

In experiment [3] the test system is KNS-62 (Squamous Cell Lung Carcinoma). The method in brief: as §1
Experiment [4] concerns RPMI-8402 (T-Lymphoblastic Leukemia). The method in brief: as §1
Another experiment deals with SK-N-DZ (Neuroblastoma). The method in brief: as §1
The subject of experiment [5] is GRANTA-519 (B-Cell Non-Hodgkin's Lymphoma). The essentials: as §1
The test system of experiment [6] is BC-1 (B-Cell Non-Hodgkin's Lymphoma). The method in brief: as §1
The subject of experiment [7] is SBC-3 (Small Cell Lung Carcinoma). The essentials: as §1
Experiment [8] concerns IGROV-1 (Ovarian Carcinoma). The essentials:
as §1

Experiment [9] deals with NCI-H835 (Other Solid Carcinomas). The essentials: as §1
Experiment [10] has as its system NCI-H1435 (Non-Small Cell Lung Carcinoma). The method in brief:
as §1

The subject of a further experiment is C32 (Melanoma). The essentials: as §1
A further experiment concerns SK-MEL-24 (Melanoma). The method in brief: as §1
In experiment [11] the test system is Daudi (Burkitt's Lymphoma). The essentials: as §1
A further experiment relates to HT-144 (Melanoma). The essentials:
as §1

In the case of `CC(=O)c1c(C)c2cnc(Nc3ccc(N4CCNCC4)cn3)nc2n(C2CCCC2)c1=O` [Palbociclib] + CC1(C)CCC(CN2CCN(c3ccc(C(=O)NS(=O)(=O)c4ccc(NCC5CCOCC5)c([N+](=O)[O-])c4)c(Oc4cnc5[nH]ccc5c4)c3)CC2)=C(c2ccc(Cl)cc2)C1 [Venetoclax] (first compound max 10 µM, 7x7, partner max 1 µM), the “combination Emax” value in [1] was determined as 0.0543; in the experiment with A375 (Melanoma), 0.195; in experiment [2] it was 0.261; in [3] it was 0.268; in [4], 0.972; in the experiment on SK-N-DZ (Neuroblastoma), 0.516. Further, the “combination Emax” value was 0.541 in experiment [5]; 0.917 in experiment [6]; 0.613 in experiment [7]; 0.537 in experiment [8]; 0.255 in experiment [9]; 0.132 in experiment [10]. Besides, the “combination Emax” value in the experiment with C32 (Melanoma) was 0.0845; in the experiment with SK-MEL-24 (Melanoma), 0.182; in experiment [11], 0.442; in the experiment on HT-144 (Melanoma), 0.555.

Regarding `CC(=O)c1c(C)c2cnc(Nc3ccc(N4CCNCC4)cn3)nc2n(C2CCCC2)c1=O` [Palbociclib] + Cc1c2c(nn1C)CSCc1cc(n(C)n1)CSc1cc(c3ccccc3c1)OCCCc1c(C(=O)O)n(C)c3c-2c(Cl)ccc13 [AZD5991] (first compound max 10 µM, 7x7, partner max 1 µM), the “combination Emax” value in experiment [1] is 0.234; in the experiment on A375 (Melanoma), 0.356; in [2] it was 0.992; in experiment [3], 0.329; in [4], 0.974; in the experiment with SK-N-DZ (Neuroblastoma), 0.55. Moreover, the “combination Emax” value stood at 0.295 in experiment [5]; 1 in experiment [6]; 0.806 in experiment [7]; 0.815 in experiment [8]; 0.416 in [9]; 0.171 in experiment [10]. Further, the “combination Emax” value is 0.254 in the experiment on C32 (Melanoma), 0.283 in the experiment with SK-MEL-24 (Melanoma), 0.571 in [11] and 0.972 in the experiment on HT-144 (Melanoma).

For `CC(=O)c1c(C)c2cnc(Nc3ccc(N4CCNCC4)cn3)nc2n(C2CCCC2)c1=O` [Palbociclib] + Cn1cnc2c(F)c(Nc3ccc(Br)cc3Cl)c(C(=O)NOCCO)cc21 [Selumetinib] (first compound max 10 µM, 7x7, partner max 10 µM), the “combination Emax” value in experiment [1] is 0.387; with A375 (Melanoma), 0.705; in experiment [2], 0.168; in experiment [3], 0.552; in [4], 0.957; in the experiment with SK-N-DZ (Neuroblastoma), 0.61. In addition, the “combination Emax” value was 0.367 in experiment [5]; 0.91 in experiment [6]; 0.744 in experiment [7]; 0.782 in [8]; 0.133 in experiment [9]; 0.147 in experiment [10]. Besides, the “combination Emax” value in the experiment with C32 (Melanoma) was 0.959; in the experiment with SK-MEL-24 (Melanoma), 0.654; in experiment [11], 0.415; in the experiment with HT-144 (Melanoma), 0.896.

On to `Cn1cnc2c(F)c(Nc3ccc(Br)cc3Cl)c(C(=O)NOCCO)cc21` [Selumetinib] + C=CCn1c(=O)c2cnc(Nc3ccc(N4CCN(C)CC4)cc3)nc2n1-c1cccc(C(C)(C)O)n1 [AZD1775] (first compound max 10 µM, partner max 1 µM), for which the “combination Emax” value in [1] came to 0.474; with A375 (Melanoma) it was 0.755; in experiment [2], 0.67; in [3], 0.434; in experiment [4] it was 1; in the experiment with SK-N-DZ (Neuroblastoma) it was 0.971. Further, the “combination Emax” value in experiment [5] was 0.869; in experiment [6], 0.993; in experiment [7], 0.269; in experiment [8], 0.848; in experiment [9], 0.512; in [10], 0.209. For the same compound, the “combination Emax” value is 0.987 in the experiment with C32 (Melanoma), 0.68 in the experiment with SK-MEL-24 (Melanoma), 0.662 in experiment [11] and 0.812 in the experiment on HT-144 (Melanoma).

In the case of `Cn1cnc2c(F)c(Nc3ccc(Br)cc3Cl)c(C(=O)NOCCO)cc21` [Selumetinib] + CC(C)n1c(=O)n(C)c2cnc3cc(F)c(-c4ccc(OCCCN5CCCCC5)nc4)cc3c21 [AZD1390] (first compound max 10 µM, 7x7, partner max 0.3 µM), the “combination Emax” value in experiment [1] is 0.44; in the experiment on A375 (Melanoma), 0.684; in experiment [2], 0.281; in experiment [3], 0.439; in experiment [4], 0.0871; in the experiment with SK-N-DZ (Neuroblastoma), 0.239. Moreover, the “combination Emax” value came to 0.095 in experiment [5]; 0.328 in experiment [6]; 0.152 in experiment [7]; 0.618 in [8]; 0.0782 in experiment [9]; 0.13 in [10]. In addition, the “combination Emax” value with C32 (Melanoma) was found to be 0.948; in the experiment with SK-MEL-24 (Melanoma) it was 0.495; in experiment [11], 0.211; in the experiment on HT-144 (Melanoma) it was 0.734.

As to `Cn1cnc2c(F)c(Nc3ccc(Br)cc3Cl)c(C(=O)NOCCO)cc21` [Selumetinib] + CCN(CCO)CCCOc1ccc2c(Nc3cc(CC(=O)Nc4cccc(F)c4)[nH]n3)ncnc2c1 [AZD2811] (first compound max 10 µM, 7x7, partner max 1 µM), the “combination Emax” value stood at 0.483 in [1]; 0.718 in the experiment on A375 (Melanoma); 0.551 in experiment [2]; 0.495 in experiment [3]; 0.754 in experiment [4]; 0.621 in the experiment on SK-N-DZ (Neuroblastoma). For the same compound, the “combination Emax” value in [5] was determined as 0.439; in [6], 0.655; in [7], 0.482; in experiment [8], 0.665; in [9] it was 0.177; in [10], 0.106. The “combination Emax” value with C32 (Melanoma) is 0.999; in the experiment with SK-MEL-24 (Melanoma) it was 0.558; in [11], 0.387; with HT-144 (Melanoma), 0.786.

For the compound `Cn1cnc2c(F)c(Nc3ccc(Br)cc3Cl)c(C(=O)NOCCO)cc21` [Selumetinib] + C[C@@H]1COCCN1C2=NC(=NC(=C2)C3(CC3)[S@](=N)(=O)C)C4=C5C=CNC5=NC=C4 [AZD6738] (first compound max 10 µM, 7x7, partner max 10 µM), the “combination Emax” value amounted to 0.559 in experiment [1]; 0.772 with A375 (Melanoma); 0.677 in experiment [2]; 0.524 in experiment [3]; 0.974 in [4]; 0.986 in the experiment on SK-N-DZ (Neuroblastoma). For the same compound, the “combination Emax” value in experiment [5] is 0.909; in experiment [6], 0.923; in experiment [7] it was 0.656; in experiment [8] it was 0.818; in [9], 0.19; in [10], 0.114. The “combination Emax” value in the experiment on C32 (Melanoma) came to 1; in the experiment with SK-MEL-24 (Melanoma), 0.56; in experiment [11] it was 0.672; with HT-144 (Melanoma), 0.864.
